Experimental data from ChEMBL document CHEMBL1131974, “Asymmetric synthesis and antitumor activity of cycloalkanin” (1999).

Assays:
P388 [1] = assay: In vitro cytotoxic activity against P388 tumor cell line by MTT assay at 48 hour at a concentration 10E-5 (M/L); format: functional, Mus musculus
A549 [2] = assay: In vitro cytotoxic activity against A549 tumor cell line by SRB assay at 72 hour at a concentration 10E-6 (M/L); format: functional, Homo sapiens
A549 [3] = assay: In vitro cytotoxic activity against A549 tumor cell line by SRB assay at 72 hour at a concentration 10E-4 (M/L); format: functional, Homo sapiens
P388 [4] = assay: In vitro cytotoxic activity against P388 tumor cell line by MTT assay at 48 hour at a concentration 10E-8 (M/L); format: functional, Mus musculus
P388 [5] = assay: In vitro cytotoxic activity against P388 tumor cell line by MTT assay at 48 hour at a concentration 10E-6 (M/L); format: functional, Mus musculus
A549 [6] = assay: In vitro cytotoxic activity against A549 tumor cell line by SRB assay at 72 hour at a concentration 10E-5 (M/L); format: functional, Homo sapiens
A549 [7] = assay: In vitro cytotoxic activity against A549 tumor cell line by SRB assay at 72 hour at a concentration 10E-8 (M/L); format: functional, Homo sapiens
P388 [8] = assay: In vitro cytotoxic activity against P388 tumor cell line by MTT assay at 48 hour at a concentration 10E-4 (M/L); format: functional, Mus musculus
P388 [9] = assay: In vitro cytotoxic activity against P388 tumor cell line by MTT assay at 48 hour at a concentration 10E-7 (M/L); format: functional, Mus musculus
A549 [10] = assay: In vitro cytotoxic activity against A549 tumor cell line by SRB assay at 72 hour at a concentration 10E-7 (M/L); format: functional, Homo sapiens

CC1(C)CC[C@H](C2=CC(=O)c3c(O)ccc(O)c3C2=O)O1
Inhibition (P388 [1]): 98.9% | Inhibition (A549 [2]): 24.7% | Inhibition (A549 [3]): 92.5% | Inhibition (P388 [4]): 98.9% | Inhibition (P388 [5]): 98.9% | Inhibition (A549 [6]): 93.5% | Inhibition (A549 [7]): 0% | Inhibition (P388 [8]): 98.9% | Inhibition (P388 [9]): 98.9% | Inhibition (A549 [10]): 14%
